Data as given in ChEMBL document CHEMBL3779887, “Robenidine Analogues as Gram-Positive Antibacterial Agents” (J Med Chem, 2016).
In brackets after ≈: the same amount, converted by molar mass. Activity calls are given as the source filed them. The calls are words filed in the database; no cut-off is given here.

How the values were obtained:
Format in all cases: functional
[1] = test system: Escherichia coli; assay: Antibacterial activity against Escherichia coli ATCC 25922 after 20 to 24 hrs
[2] = test system: Staphylococcus aureus; assay: Antibacterial activity against methicillin-resistant Staphylococcus aureus after 20 to 24 hrs
[3] = test system: Pseudomonas aeruginosa; assay: Antibacterial activity against Pseudomonas aeruginosa ATCC 27853 after 20 to 24 hrs
[4] = test system: Enterococcus; assay: Antibacterial activity against vancomycin-resistant Enterococcus after 20 to 24 hrs

Structure (SMILES) | MIC [1] [µM] | MIC [2] [µM] | MIC [3] [µM] | MIC [4] [µM] | Activity [1] | Activity [2] | Activity [4]
C#Cc1ccc(/C=N/NC(=N)N/N=C/c2ccc(C#C)cc2)cc1 | > 400 | > 400 | > 400 | 17.2 (≈ 5.39 µg/mL) | – | – | –
N=C(N/N=C(\CN)c1ccccc1)N/N=C(\CN)c1ccccc1 | – | > 400 | – | > 400 | inactive | – | –
N=C(N/N=C/c1cnc2ccccc2n1)N/N=C/c1cnc2ccccc2n1 | – | – | – | – | – | inactive | inactive
CN(C)c1ccc(/C=N/NC(=N)N/N=C/c2ccc(N(C)C)cc2)cc1 | > 400 | 30.9 (≈ 10.9 µg/mL) | > 400 | 30.9 (≈ 10.9 µg/mL) | – | – | –
N=C(N/N=C/c1ccc(O)cc1O)N/N=C/c1ccc(O)cc1O | > 400 | > 400 | > 400 | > 400 | – | – | –
N=C(N/N=C/c1ccc(Cl)cc1O)N/N=C/c1ccc(Cl)cc1O | > 400 | 80 (≈ 29.3 µg/mL) | > 400 | 45 (≈ 16.5 µg/mL) | – | – | –
N=C(N/N=C/c1ccc(Cl)cc1F)N/N=C/c1ccc(Cl)cc1F | > 400 | 6.1 (≈ 2.26 µg/mL) | > 400 | 7.4 (≈ 2.74 µg/mL) | – | – | –
N=C(N/N=C/c1cc(F)ccc1F)N/N=C/c1cc(F)ccc1F | > 400 | > 400 | > 400 | > 400 | – | – | –
N=C(N/N=C/c1ccc(SC(F)(F)F)cc1)N/N=C/c1ccc(SC(F)(F)F)cc1 | > 400 | 96 (≈ 44.7 µg/mL) | > 400 | 135 (≈ 62.8 µg/mL) | – | – | –
N=C(N/N=C/c1ccc(O)c([N+](=O)[O-])c1)N/N=C/c1ccc(O)c([N+](=O)[O-])c1 | > 400 | > 400 | > 400 | > 400 | – | – | –
CCCC/C(=N\NC(=N)N/N=C(\CCCC)c1ccc(Cl)cc1)c1ccc(Cl)cc1 | – | > 400 | – | > 400 | inactive | – | –
C/C(=N\NC(=N)N/N=C(\C)c1ccc(C(C)(C)C)cc1)c1ccc(C(C)(C)C)cc1 | – | 4.5 (≈ 1.83 µg/mL) | – | 36.2 (≈ 14.7 µg/mL) | inactive | – | –
N=C(N/N=C/c1cccc(O)c1)N/N=C/c1cccc(O)c1 | > 400 | 192 (≈ 57.1 µg/mL) | > 400 | 288 (≈ 85.6 µg/mL) | – | – | –
CN(C)c1ccc(/C=N/NC(=N)N/N=C/c2ccc(N(C)C)cc2O)c(O)c1 | > 400 | 229 (≈ 87.8 µg/mL) | > 400 | 76 (≈ 29.1 µg/mL) | – | – | –
N=C(N/N=C/c1ccc(O)c(O)c1)N/N=C/c1ccc(O)c(O)c1 | > 400 | > 400 | > 400 | > 400 | – | – | –
COc1ccc(/C=N/NC(=N)N/N=C/c2ccc(OC)c(OC)c2)cc1OC | > 400 | > 400 | > 400 | > 400 | – | – | –
CC(C)c1ccc(/C=N/NC(=N)N/N=C/c2ccc(C(C)C)cc2)cc1 | > 400 | 9.1 (≈ 3.18 µg/mL) | > 400 | 13 (≈ 4.54 µg/mL) | – | – | –
N=C(N/N=C/c1ccc(F)c(F)c1)N/N=C/c1ccc(F)c(F)c1 | > 400 | 40.1 (≈ 13.5 µg/mL) | > 400 | 10.7 (≈ 3.61 µg/mL) | – | – | –
Cc1ccc(/C=N/NC(=N)N/N=C/c2ccc(C)cc2)cc1 | > 400 | 9.1 (≈ 2.67 µg/mL) | > 400 | 12.1 (≈ 3.55 µg/mL) | – | – | –
COc1cc(/C=N/NC(=N)N/N=C/c2cc(Br)c(OC)c(OC)c2)cc(Br)c1OC | > 400 | > 400 | > 400 | > 400 | – | – | –
N=C(N/N=C/c1cc(O)c(O)c(O)c1)N/N=C/c1cc(O)c(O)c(O)c1 | > 400 | 161 (≈ 58.2 µg/mL) | 322 (≈ 116 µg/mL) | > 400 | – | – | –
N=C(N/N=C/c1ccc(O)c(O)c1O)N/N=C/c1ccc(O)c(O)c1O | > 400 | 161 (≈ 58.2 µg/mL) | > 400 | 161 (≈ 58.2 µg/mL) | – | – | –

Structure (SMILES) | MIC [1] [µM] | MIC [2] [µM] | MIC [3] [µM] | MIC [4] [µM] | Activity [1] | Activity [2] | Activity [4]
C/C(=N\NC(=N)N/N=C(\C)c1ccc(C(F)(F)F)cc1)c1ccc(C(F)(F)F)cc1 | – | > 400 | – | 17.2 (≈ 7.39 µg/mL) | inactive | – | –
N=C(N/N=C/c1cnccc1Cl)N/N=C/c1cnccc1Cl | – | 172 (≈ 57.8 µg/mL) | – | 86 (≈ 28.9 µg/mL) | – | – | –
Cc1cccc(/C=N/NC(=N)N/N=C/c2cccc(C)c2O)c1O | > 400 | > 400 | > 400 | > 400 | – | – | –
N=C(N/N=C(\C(=O)O)c1ccccc1)N/N=C(\C(=O)O)c1ccccc1 | – | > 400 | – | > 400 | inactive | – | –
CC/C(=N\NC(=N)N/N=C(\CC)c1ccc(Cl)cc1)c1ccc(Cl)cc1 | – | 56 (≈ 21.9 µg/mL) | – | 18.7 (≈ 7.3 µg/mL) | inactive | – | –
N=C(N/N=C/c1ccccc1Cl)N/N=C/c1ccccc1Cl | > 400 | > 400 | > 400 | > 400 | – | – | –
COc1cc(/C=N/NC(=N)N/N=C/c2cc(O)c(O)c(OC)c2)cc(O)c1O | > 400 | > 400 | > 400 | > 400 | – | – | –
CCCc1ccc(/C=N/NC(=N)N/N=C/c2ccc(CCC)cc2)cc1 | > 400 | 83 (≈ 29 µg/mL) | > 400 | 73 (≈ 25.5 µg/mL) | – | – | –
N=C(N/N=C/c1cc(Cl)cc(Cl)c1)N/N=C/c1cc(Cl)cc(Cl)c1 | > 400 | > 400 | > 400 | > 400 | – | – | –
N=C(N/N=C/c1ccc(O)cc1)N/N=C/c1ccc(O)cc1 | > 400 | 192 (≈ 57.1 µg/mL) | > 400 | 288 (≈ 85.6 µg/mL) | – | – | –
CC(=O)Nc1cc(Cl)ccc1/C=N/NC(=N)N/N=C/c1ccc(Cl)cc1NC(C)=O | > 400 | > 400 | > 400 | > 400 | – | – | –
CC(O)Nc1cc(Cl)ccc1/C=N/NC(=N)N/N=C/c1ccc(Cl)cc1NC(C)O (stereo not given) | > 400 | 66 (≈ 29.9 µg/mL) | > 400 | 98 (≈ 44.3 µg/mL) | – | – | –
CCC/C(=N\NC(=N)N/N=C(\CCC)c1ccc(Cl)cc1)c1ccc(Cl)cc1 | – | > 400 | – | > 400 | inactive | – | –
N=C(N/N=C/c1c(Cl)cccc1Cl)N/N=C/c1c(Cl)cccc1Cl | > 400 | > 400 | > 400 | > 400 | – | – | –
C/C(=N\NC(=N)N/N=C(\C)c1ccccc1)c1ccccc1 | – | 18.2 (≈ 5.34 µg/mL) | – | 49 (≈ 14.4 µg/mL) | inactive | – | –
N=C(N/N=C/c1ccc(OC(F)(F)F)cc1)N/N=C/c1ccc(OC(F)(F)F)cc1 | > 400 | 187 (≈ 81 µg/mL) | > 400 | 85 (≈ 36.8 µg/mL) | – | – | –
N=C(N/N=C/c1cc(O)c(O)cc1O)N/N=C/c1cc(O)c(O)cc1O | > 400 | 161 (≈ 58.2 µg/mL) | > 400 | 322 (≈ 116 µg/mL) | – | – | –
N=C(N/N=C/c1cccc(Cl)c1)N/N=C/c1cccc(Cl)c1 | > 400 | 8.1 (≈ 2.71 µg/mL) | > 400 | 10.8 (≈ 3.61 µg/mL) | – | – | –
COc1ccccc1/C=N/NC(=N)N/N=C/c1ccccc1OC | > 400 | > 400 | > 400 | 358 (≈ 116 µg/mL) | – | – | –
CC(=O)Nc1ccc(/C=N/NC(=N)N/N=C/c2ccc(NC(C)=O)cc2)cc1 | > 400 | > 400 | > 400 | > 400 | – | – | –
N=C(N/N=C/c1cccc(C(=O)O)c1)N/N=C/c1cccc(C(=O)O)c1 | > 400 | > 400 | > 400 | > 400 | – | – | –
N=C(N/N=C/c1ccncc1)N/N=C/c1ccncc1 | – | > 400 | – | > 400 | – | – | –

Structure (SMILES) | MIC [1] [µM] | MIC [2] [µM] | MIC [3] [µM] | MIC [4] [µM] | Activity [1] | Activity [2] | Activity [4]
COc1cc(/C=N/NC(=N)N/N=C/c2ccc(O)c(OC)c2)ccc1O | > 400 | 244 (≈ 87.2 µg/mL) | > 400 | 163 (≈ 58.3 µg/mL) | – | – | –
CCCCc1ccc(/C=N/NC(=N)N/N=C/c2ccc(CCCC)cc2)cc1 | > 400 | 232 (≈ 87.6 µg/mL) | > 400 | 193 (≈ 72.9 µg/mL) | – | – | –
N=C(N/N=C/c1ccc2ccccc2c1)N/N=C/c1ccc2ccccc2c1 | – | 239 (≈ 87.3 µg/mL) | – | 159 (≈ 58.1 µg/mL) | – | – | –
N=C(N/N=C/c1ccc2[nH]ccc2c1)N/N=C/c1ccc2[nH]ccc2c1 | – | 31.6 (≈ 10.9 µg/mL) | – | 42 (≈ 14.4 µg/mL) | – | – | –
N=C(N/N=C/c1csc2ccc(Cl)cc12)N/N=C/c1csc2ccc(Cl)cc12 | – | > 400 | – | 33.1 (≈ 14.8 µg/mL) | – | – | –
N=C(N/N=C/c1cccc(O)c1O)N/N=C/c1cccc(O)c1O | > 400 | 88 (≈ 29 µg/mL) | > 400 | 262 (≈ 86.3 µg/mL) | – | – | –
C/C(=N\NC(=N)N/N=C(\C)c1ccc(C)cc1)c1ccc(C)cc1 | – | 11.2 (≈ 3.6 µg/mL) | – | 8.4 (≈ 2.7 µg/mL) | inactive | – | –
N=C(N/N=C/c1ccccc1-c1ccccc1)N/N=C/c1ccccc1-c1ccccc1 | > 400 | > 400 | > 400 | > 400 | – | – | –
COc1cc(Br)c(/C=N/NC(=N)N/N=C/c2cc(OC)c(OC)cc2Br)cc1OC | > 400 | > 400 | > 400 | > 400 | – | – | –
N=C(N/N=C/c1ccc(F)cc1)N/N=C/c1ccc(F)cc1 | > 400 | 47 (≈ 14.2 µg/mL) | > 400 | 23.7 (≈ 7.14 µg/mL) | – | – | –
N=C(N/N=C/c1ccc(/C=C/C(=O)O)cc1)N/N=C/c1ccc(/C=C/C(=O)O)cc1 | > 400 | > 400 | > 400 | > 400 | – | – | –
N=C(N/N=C/c1ccccc1Br)N/N=C/c1ccccc1Br | > 400 | > 400 | > 400 | > 400 | – | – | –
N=C(N/N=C/C(=C/c1ccccc1)c1ccccc1)N/N=C/C(=C/c1ccccc1)c1ccccc1 | – | 61 (≈ 28.6 µg/mL) | – | > 400 | – | – | –
N=C(N/N=C/C1CCCCC1)N/N=C/C1CCCCC1 | – | 408 (≈ 113 µg/mL) | – | 306 (≈ 84.9 µg/mL) | – | – | –
C/C(=N\NC(=N)N/N=C(\C)c1ccc(Br)cc1)c1ccc(Br)cc1 | – | 16.4 (≈ 7.4 µg/mL) | – | 24.6 (≈ 11.1 µg/mL) | inactive | – | –
N=C(N/N=C/c1ccc(-c2ccccc2)cc1)N/N=C/c1ccc(-c2ccccc2)cc1 | > 400 | 282 (≈ 118 µg/mL) | > 400 | 106 (≈ 44.3 µg/mL) | – | – | –
N=C(N/N=C/c1cccnc1N)N/N=C/c1cccnc1N | – | > 400 | – | > 400 | – | – | –
C/C(=N\NC(=N)N/N=C(\C)c1ccc(N2CCNCC2)cc1)c1ccc(N2CCNCC2)cc1 | – | 243 (≈ 112 µg/mL) | – | 278 (≈ 128 µg/mL) | inactive | – | –
N=C(N/N=C/c1cnc2ccccc2c1)N/N=C/c1cnc2ccccc2c1 | – | – | – | – | – | inactive | inactive
N=C(N/N=C/C=C/c1ccccc1)N/N=C/C=C/c1ccccc1 | – | > 400 | – | > 400 | – | – | –
COc1ccc(/C=C/C=N/NC(=N)N/N=C/C=C/c2ccc(OC)cc2)cc1 | – | 309 (≈ 117 µg/mL) | – | > 400 | – | – | –
